According to EP4582418A1, “CRYSTALLINE FORM OF QUINOLINE DERIVATIVE INHIBITOR, PREPARATION METHOD THEREFOR AND USE THEREOF” (TransThera Sciences (Nanjing), Inc., priority 2022, dated 2024):

Legend:
H1299 cell pAXL = target: T1, H1299 cell pAXL (Homo sapiens, UniProt P30530); assay: Inhibitory activity on cell pAXL (Western Blot, hGAS6 stimulation); assay type: cell-based; details: H1299 cells, 60 min compound then hGAS6 200 ng/mL 60 min
T1 construct: endogenous in cells; host or cells: H1299
T1 sequence (P30530 26-894): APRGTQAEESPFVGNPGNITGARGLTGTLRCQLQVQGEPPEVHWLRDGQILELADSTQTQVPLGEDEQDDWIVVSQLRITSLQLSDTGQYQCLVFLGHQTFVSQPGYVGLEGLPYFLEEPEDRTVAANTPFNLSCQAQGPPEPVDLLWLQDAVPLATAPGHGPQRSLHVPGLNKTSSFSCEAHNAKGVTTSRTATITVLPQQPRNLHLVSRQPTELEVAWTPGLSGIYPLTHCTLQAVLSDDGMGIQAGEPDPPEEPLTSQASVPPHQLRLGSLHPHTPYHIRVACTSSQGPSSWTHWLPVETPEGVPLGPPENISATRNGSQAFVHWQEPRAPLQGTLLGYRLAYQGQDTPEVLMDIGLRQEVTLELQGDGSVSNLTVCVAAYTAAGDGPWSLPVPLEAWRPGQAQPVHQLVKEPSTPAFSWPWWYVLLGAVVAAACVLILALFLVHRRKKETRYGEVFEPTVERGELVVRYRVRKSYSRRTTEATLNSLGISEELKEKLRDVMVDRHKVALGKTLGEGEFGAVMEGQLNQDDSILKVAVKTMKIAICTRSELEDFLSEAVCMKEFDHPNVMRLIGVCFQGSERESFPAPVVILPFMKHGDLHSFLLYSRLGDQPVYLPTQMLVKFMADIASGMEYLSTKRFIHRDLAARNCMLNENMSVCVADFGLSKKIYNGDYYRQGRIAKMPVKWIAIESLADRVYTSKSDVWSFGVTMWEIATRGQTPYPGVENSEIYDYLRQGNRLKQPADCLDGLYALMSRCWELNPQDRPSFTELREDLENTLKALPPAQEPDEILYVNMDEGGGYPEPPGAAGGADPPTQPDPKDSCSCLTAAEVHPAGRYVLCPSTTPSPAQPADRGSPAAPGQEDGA
Protocol: H1299 is a non-small cell lung cancer cell line.
Test substance: the crystal form of the methanesulfonate of the compound of formula (I) of the present disclosure, having the structure shown above.
Test instruments: protein electrophoresis apparatus (Bio Rad), membrane transfer apparatus (Bio Rad), exposure apparatus (Tanon), CO2 cell incubator (Thermo), and the like.
H1299 cells were inoculated into a 6-well plate (containing 10% FBS 1640 medium, 5 × 10^5 cells/well) and adherently cultivated at 37 °C with 5% CO2 for 18 h. The cells were starved overnight, and different concentrations of the compound were added. The final compound concentrations were 0.37 nM, 1.1 nM, 3.3 nM, 10 nM, and 30 nM, with the final DMSO content in each compound well being 1 ‰. The negative control well contained medium with 1‰ DMSO. The cells were incubated at 37 °C with 5% CO2 for 60 min, and then hGAS6 (R&D, final concentration: 200 ng/mL) was added to each well. The cells were incubated for another 60 min, and then the total protein of the cells was extracted for a Western Blot experiment to assay the inhibitory activity of the compound on cell pAXL.

[1] = Stability test under influencing factors (high temperature, high humidity, illumination); assay type: physicochemical
Protocol: Test substances: the crystal forms I, II, III, and IV of the methanesulfonate of the compound of formula (I) of the present disclosure.
Methodology: Appropriate amounts of samples of the crystal forms I, II, III, and IV of the methanesulfonate of the compound of formula (I) were separately left to stand open under the conditions of a high temperature (60 °C), a high humidity (RH 92.5%), and illumination (4500±500 Lux); sampling was performed on days 5, 10, and 30 to investigate changes in the appearance, purity, and crystal form of the samples.

[2] = PK evaluation of crystal forms in rats; assay type: in vivo
Protocol: The experimental crystal forms I and II of the methanesulfonate of the compound of formula (I) were each prepared into a suspension solution with 0.5% HPMC. The compound solutions were intragastrically administered to SD rats at a dose of 60 mg/kg. Blood samples were collected at time points of 15 min, 30 min, 1 h, 2 h, 4 h, 6 h, 8 h, 24 h, 48 h, 72 h, and 96 h after administration.
The animals were fixed, with tails warmed in a water bath 10 min before each sampling time point. About 100 µL of blood was collected via the tail vein, and the blood samples were collected in anticoagulation tubes containing EDTA-K2. The blood samples were then centrifuged at 8,000 rpm for 6 min at 4 °C to give plasma samples. The plasma samples were prepared within 30 min after blood collection. The plasma samples were stored in a refrigerator at -80 °C before the test.
The sample to be tested was taken out from the -80 °C refrigerator, naturally thawed at room temperature, and vortexed for 5 min. 20 µL of plasma sample was precisely pipetted to a 1.5 mL centrifuge tube, and 200 µL of internal standard working solution (a solution of tolbutamide in methanol, 100 ng/mL) was added. The resulting mixture was thoroughly mixed, vortexed for 5 min, and centrifuged at 12,000 rpm for 5 min. 50 µL of supernatant was precisely pipetted to a 96-well plate pre-loaded with 150 µL of water per well, and the resulting mixture was vortexed for 5 min and then used for LC-MS/MS analysis.
The concentrations of the test samples were calculated by Analyst 1.6.3 from AB Sciex. Parameters such as mean, standard deviation, and coefficient of variation (excluding those output directly by Analyst 1.6.3) were calculated by Microsoft Excel. PK parameters were calculated by Pharsight Phoenix 6.1 software NCA (Tmax was in median).

[3] = Left to stand open at 60 °C for 5 days
[4] = Left to stand open at 60 °C for 10 days
[5] = Left to stand open at 60 °C for 30 days
[6] = Left to stand open at RH 92.5% for 5 days
[7] = Left to stand open at RH 92.5% for 10 days
[8] = Left to stand open at RH 92.5% for 30 days
[9] = Left to stand open under illumination (4500±500 Lux) for 5 days
[10] = Left to stand open under illumination (4500±500 Lux) for 10 days
[11] = Left to stand open under illumination (4500±500 Lux) for 30 days

COc1cc2nccc(Oc3ccc(NC(=O)c4nn(C(C)C)cc(-c5ccc(F)cc5)c4=O)nc3)c2cc1OC [Crystal form I, N-(5-((6,7-dimethoxyquinolin-4-yl)oxy)pyridin-2-yl)-5-(4-fluorophenyl)-1-isopropyl-4-oxo-1,4-dihydropyridazine-3-carboxamide]
IC50 (H1299 cell pAXL): < 0.37 nM
Appearance ([1]; 0 days): White or off-white solid
Purity ([1]; 0 days): 99.69%
Appearance [1, 3]: White or off-white solid
Purity [1, 3]: 99.70%
Appearance [1, 4]: White or off-white solid
Purity [1, 4]: 99.68%
Appearance [1, 5]: White or off-white solid
Purity [1, 5]: 99.67%
Appearance [1, 6]: White or off-white solid
Purity [1, 6]: 99.69%
Appearance [1, 7]: White or off-white solid
Purity [1, 7]: 99.68%
Appearance [1, 8]: White or off-white solid
Purity [1, 8]: 99.67%
Appearance [1, 9]: White or off-white solid
Purity [1, 9]: 99.70%
Appearance [1, 10]: White or off-white solid
Purity [1, 10]: 99.69%
Appearance [1, 11]: White or off-white solid
Purity [1, 11]: 99.69%
changes in the appearance and purity ([1]; left to stand under conditions of the influencing factors for 30 days): no significant changes
λ_z ([2]; SD rats, PO 60 mg/kg, n = 3, suspension in 0.5% HPMC): 0.018 h⁻¹
AUC(0-t) ([2]; SD, rat, plasma, po, 60 mg/kg, 0-96 h, n = 3): 4020 µg·h/mL
Tmax ([2]; SD, rat, plasma, po, 60 mg/kg, median, n = 3, read-out: Tmax): 8 h
Cmax ([2]; SD, rat, plasma, po, 60 mg/kg, n = 3, read-out: Cmax): 69 µg/mL
tz1/2 ([2]; terminal half-life, SD rats, PO 60 mg/kg, n = 3): 38.6 h
